From US8050868B2, “Methods for determining the organization of a cellular component of interest” (Cellomics, Inc., priority 2001, dated 2011)

Columns and labels:
[1] = test system: 3T3 cells; assay: Histogram distribution of microtubule-associated pixel intensities (OD variance); type: cell-based; conditions: individual 3T3 cells
Excerpt: Finally, histogram distribution of microtubule-associated pixel intensities in individual 3T3 cells was used to distinguish control cells from cells treated with nocodazole, paclitaxel, and vinblastine.

[2] = test system: tubulin; conditions: single annular domain divided into 24 angular domains
[3] = test system: microtubules; assay: Microtubule organization using a single perinuclear ring mask and field based threshold measurements (spot count, spot area); type: cell-based; conditions: min-max plates
Description: (§1) Cell culture/drug treatments: Cells were plated on 96-well plates in the appropriate cell culture media plus 10% FBS. […] Different plating densities and treatment times were explored to maximize the observable effects of the drugs.
(§2) Immunofluorescence: This included three steps: (1) Extraction of soluble (monomeric) tubulin by permeabilizing the cells with 0.5% Triton X-100 in a microtubule stabilizing buffer, in order to remove unpolymerized tubulin. (2) Fixation of intracellular protein with 4% formaldehyde. (3) Microtubule, DNA, and (optional) total cellular protein fluorescence labeling. Microtubule staining was carried out by a standard immunofluorescence procedures using a primary mouse monoclonal antibody (anti-tubulin IgG), and affinity purified polyclonal secondary antibody (ALEXA FLUOR® 488-conjugated anti-mouse IgG (Molecular Probes, Inc. Eugene, OR)). After the cells were stained, DNA was labeled with 10 microgram/ml Hoechst 33342.
(§3) For cells triple-stained with tetramethylrhodamine iodoacetate (TMRIA) (Molecular Probes), Hoechst 33342, and ALEXA FLUOR® 488 (tubulin), or cells double stained with Hoechst 33342 and ALEXA FLUOR® 488, an XF57 filter block was used.

[4] = test system: tubulin; assay: Multi-domain analysis of tubulin organization (angular, transverse, annular domains); type: cell-based; conditions: single cell
Description: Referring to FIG. 8, experiments were conducted to analyze tubulin organization in untreated (8A-D) and drug-treated (8E-H) fields of cells using angular (8B,F), transverse (8C, G) or annular domains (8D,H). […] For the purpose of analysis, cell boundaries were defined (8B-D, 8F-H) based on the reference component origin (which here is the nuclear perimeter). The component of interest field was thresholded to show the brightest pixels, and a single cell is shown for illustration purposes.
The spatial organization of intensity distribution within individual cells was then analyzed in an object of interest image, using annular domains (as in FIGS. […]). The data are shown in FIG. 9 as graphs of tubulin distribution in a single control (9A-C) and a vinblastine-treated cell (9D-F). Annular domains were created by sequential dilations of the nuclear perimeter. The position of the domain furthest away from the nucleus was given a value of one, and domain position increases in number with nuclear proximity. For each plot, measurements of tubulin distribution were normalized, by dividing the measurement obtained in a particular domain by the measurement obtained in the domain that is immediately adjacent to the nucleus. Intensity distribution within each domain was analyzed using a mathematical function to calculate the following: (1) the average pixel intensity (a measure proportional to tubulin mass) (9A, D); (2) texture difference moment (a measure proportional to tubulin periodicity) (9B, E); and (3) OD variance (a measure proportional to tubulin clustering) (9C,F). To determine the trends within each cell, data points were fitted with a linear function. […] For comparing cell populations under different treatment conditions, a number of cells in each condition can be analyzed as a sample, and the average slope within each sample used for statistical analysis.

[5] = test system: microtubules; assay: Preliminary time-course and 12 hour dose-response evaluations of microtubule polymer mass; type: cell-based
Description: as §1, §2, §3
Image Analysis: Quantitative determination of microtubule polymer levels was performed using the methods described above. For analysis, a binary nuclear mask was made by thresholding the Hoechst image. The nuclear image was dilated to produce a perinuclear ring mask, where cytoplasmic tubulin polymer was measured. The ring mask allowed measurement of average intensity levels associated with the microtubule image. […] Other methods of image analysis that were used are described below.
Quantitation of microtubule-associated intensity was carried out by summing the pixel intensities in the microtubule (MT) channel in the area covered by the perinuclear ring mask. This integrated pixel intensity was then divided by the actual area of the perinuclear ring mask to arrive at the mean or “average” pixel intensity in the region covered by the perinuclear ring. From these measurements a MT polymerization index was calculated by normalizing the amount of MT fluorescence in a treated, “experimental” cell population, versus the amount of MT-associated fluorescence in an untreated, control cell population. This polymerization index represents a fraction or percentage of MT polymerization or depolymerization, relative to the untreated controls. Other methods of quantitation that were used are described below.
In addition, preliminary time-course and 12 hour dose-response evaluations using paclitaxel, nocodazole, and vinblastine were performed.

[6] = test system: microtubules; assay: Microtubule organization using concentric perinuclear ring masks; type: cell-based; conditions: for effect on microtubule organization / pattern of microtubule-associated fluorescence: similarity to other treatments: five sequential dilations of perinuclear ring mask, duplicate wells
Description: Domains were defined by five sequential dilations of a perinuclear ring mask, and measurements were made of the mean microtubule-associated intensity, the standard deviation of the microtubule-associated intensity, the mean cytoplasm to nucleus fluorescence intensity ratio, and cell-normalized microtubule fluorescence intensity. For each drug treatment condition, experiments were performed in duplicate.
Finally, the slope of the best linear fit of the microtubule associated fluorescence was calculated as a function of the angular dilation. This way, it was possible to compare the rate of change of these parameters as a function of domain position.

[7] = test system: epithelial cells; assay: Cell-based analysis of microtubule-targeting drugs, anti-tubulin immunocytochemistry, epithelial cells
Description: (§4) The mechanism of action of microtubule-targeting drugs was assessed in a cell component of interest field, represented as an image of tubulin-stained cells. Fibroblasts, epithelial cells,) and monocytes were left untreated ) or were treated with a variety of microtubule-targeting drugs. Cells were fixed and then stained with anti-tubulin immunocytochemistry, in order to determine how the different drugs affect morphological organization of microtubules.

[8] = test system: monocytes; assay: Cell-based analysis of microtubule-targeting drugs, anti-tubulin immunocytochemistry, monocytes
Description: as §4

[9] = test system: Fibroblasts; assay: Cell-based analysis of microtubule-targeting drugs, anti-tubulin immunocytochemistry, fibroblasts
Description: as §4

[10] = test system: microtubules; assay: Peaks and valleys of pixel intensity around the perinuclear ring mask (modal classification)
[11] = test system: 3T3 cells; assay: Quantitative determination of microtubule polymer content (perinuclear ring mask, anti-tubulin immunofluorescence); type: cell-based; conditions: two-hour treatment
Description: as §1
Immunofluorescence: This included three steps: (1) Extraction of soluble (monomeric) tubulin by permeabilizing the cells with 0.5% Triton X-100 in a microtubule stabilizing buffer, in order to remove unpolymerized tubulin. (2) Fixation of intracellular protein with 4% formaldehyde. (3) Microtubule, DNA, and (optional) total cellular protein fluorescence labeling. […]
Image Analysis: Quantitative determination of microtubule polymer levels was performed using the methods described above. […] The nuclear image was dilated to produce a perinuclear ring mask, where cytoplasmic tubulin polymer was measured. […]
Quantitation of microtubule-associated intensity was carried out by summing the pixel intensities in the microtubule (MT) channel in the area covered by the perinuclear ring mask. […] From these measurements a MT polymerization index was calculated by normalizing the amount of MT fluorescence in a treated, “experimental” cell population, versus the amount of MT-associated fluorescence in an untreated, control cell population. […] Other methods of quantitation that were used are described below. […]

[12] = test system: tubulin; assay: Population analysis of spatial organization of tubulin with five annular domains; conditions: five perinuclear annular domains; n>20 cells; duplicate
[13] = micromolar doses, 12 hour incubation
[14] = nanomolar concentrations, 12 hour incubation

Row | SMILES | whether OD variance of the pixel intensity distribution distinguishes treated vs. control cell populations [1] | above threshold peaks in intensity distribution per cell, on average [2] [spots] | well average spot area [3] | well normalized spot counts [3] | effect on microtubules and cell division [5, 14] | effect on microtubule organization [6] | morphological organization of microtubules [7] | morphological organization of microtubules [8] | morphological organization of microtubules [9] | type of spatial distribution of fluorescent pixel intensities at the nuclear periphery (mono-modal, non-modal, multi-modal) [10] | slope of best linear fit of microtubule associated fluorescence vs domain position: similarity to other treatments [6] | pattern of microtubule-associated fluorescence: similarity to other treatments [6] | standard deviation of mean tubulin fluorescence: similarity of tubulin organization to other treatments [12] | further results
1 | CC[C@]1(O)C[C@@H]2CN(CCc3c([nH]c4ccccc34)[C@@](C(=O)OC)(c3cc4c(cc3OC)N(C)[C@H]3[C@@](O)(C(=O)OC)[C@H](OC(C)=O)[C@]5(CC)C=CCN6CC[C@]43[C@@H]65)C2)C1 [vinblastine] | could not distinguish | 3 | significant decrease | partly increasing | depolymerized microtubules and inhibited microtubule polymerization | formation of microtubule bundles or aggregates in the cytoplasm | disrupted the microtubules and led to the formation of tubulin paracrystals | intermediate effect between nocodazole and paclitaxel | depolymerized the microtubules and led to the formation of tubulin paracrystals | Multimodal | – | – | – | distribution of brightest thresholded pixels over angular, transverse or annular domains ([4]; FIG. 8): broader distribution; OD variance (tubulin clustering) as a function of domain position ([4]; FIG. 9): marked decrease; texture difference moment (tubulin periodicity) as a function of distance from the nucleus ([4]; FIG. 9): centrifugal increase; trend of average pixel intensity (tubulin mass) as a function of annular domain position ([4]; linear fit, FIG. 9): positive slope; effect on tubulin organization [5, 13]: induced the formation of tubulin paracrystals; microtubule polymer mass [5, 13]: apparent increase
2 | CC(=O)O[C@H]1C(=O)[C@@]2(C)[C@H]([C@H](OC(=O)c3ccccc3)[C@]3(O)C[C@H](OC(=O)[C@H](O)[C@@H](NC(=O)c4ccccc4)c4ccccc4)C(C)=C1C3(C)C)[C@]1(OC(C)=O)CO[C@@H]1C[C@@H]2O [paclitaxel, Paclitaxel] | could distinguish | 4 | increased | partly increased | – | formation of microtubule bundles or aggregates in the cytoplasm | induced formation of microtubule bundles in association with the cell edge | decreased microtubule staining in the nuclear region | formation of microtubule bundles, and destroyed the focal organization of microtubules | Multimodal | most similar to the slope of cells treated with vinblastine | resembled vinblastine treated cells | more similar to vinblastine-treated cells | cell-associated microtubule intensity ([11]; 1 micromolar): significant increase; quality of dose-response data ([5]; 12 hour dose-response, preliminary): excellent dose response data
3 | COC(=O)Nc1nc2ccc(C(=O)c3cccs3)cc2[nH]1 [nocodazole] | could distinguish | 2 | – | – | inhibit cell division without necessarily inducing the net depolymerization of microtubules | microtubule disruption | induced microtubule depolymerization and led to diffuse staining of tubulin throughout the cell cytoplasm | led to microtubule depolymerization and led to diffuse tubulin staining | depolymerized the microtubules, and led to a diffuse staining of tubulin throughout the cytoplasm | Non-modal | most similar to the slope of cells treated with colchicine | resembled colchicine treated cells | more similar to colchicine-treated cells | cell-associated microtubule intensity ([11]; 5 micromolar): significant decrease; microtubule polymer mass [5, 14]: increase
